Reference: ChEMBL document CHEMBL1681670, “Synthesis and cytotoxicity of (-)-renieramycin G analogs” (Bioorg Med Chem Lett, 2011)
pIC50: −log10 of the molar value. ≈ marks a conversion by molar mass, not a printed value.

Experiments:
A2780 = experiment: Cytotoxicity against human A2780 cells after 3 days by MTT assay; format: functional, cell-based; conditions: A2780, 72 h
MCF7 = experiment: Cytotoxicity against human MCF7 cells after 3 days by MTT assay; format: functional, cell-based; conditions: MCF7, 72 h
A549 = experiment: Cytotoxicity against human A549 cells after 3 days by MTT assay; format: functional, cell-based; conditions: A549, 72 h
BGC-823 = experiment: Cytotoxicity against human BGC823 cells after 3 days by MTT assay; format: functional, cell-based; conditions: BGC-823, 72 h
KETR3 = experiment: Cytotoxicity against human Ketr3 cells after 3 days by MTT assay; format: functional, cell-based; conditions: KETR3, 72 h
KB [1] = experiment: Cytotoxicity against human KB cells after 3 days by MTT assay; format: functional, cell-based; conditions: 72 h
HeLa = experiment: Cytotoxicity against human HeLa cells after 3 days by MTT assay; format: functional, cell-based; conditions: 72 h
Bel-7402 = experiment: Cytotoxicity against human Bel7402 cells after 3 days by MTT assay; format: functional, cell-based; conditions: Bel-7402, 72 h
HCT-8 = experiment: Cytotoxicity against human HCT8 cells after 3 days by MTT assay; format: functional, cell-based; conditions: HCT-8, 72 h
KB [2] = experiment: Cytotoxicity against human KB cells; format: functional
LoVo = experiment: Cytotoxicity against human LoVo cells; format: functional

Row | Compound | pIC50 (A2780) | pIC50 (MCF7) | pIC50 (A549) | pIC50 (BGC-823) | pIC50 (KETR3) | pIC50 (KB [1]) | pIC50 (HeLa) | pIC50 (Bel-7402) | pIC50 (HCT-8) | MIC (KB [2]) | MIC (LoVo)
1 | COC1=C(C)C(=O)C2=C(C1=O)[C@@H]1[C@@H]3CC4=C(C(=O)C(OC)=C(C)C4=O)[C@H](COC(C)=O)N3C(=O)[C@H](C2)N1C | 5.49 | 5.31 | 5.35 | 5.37 | 5.34 | 5.65 | 5.57 | 5.40 | 5.25 |  | 
2 | C/C=C/C(=O)OC[C@H]1C2=C(C[C@H]3[C@H]4C5=C(C[C@@H](C(=O)N13)N4C)C(=O)C(C)=C(OC)C5=O)C(=O)C(C)=C(OC)C2=O | 4.60 | 4.62 | 5.13 | 4.97 | 4.76 | 5.28 | 4.90 | 4.62 | 4.61 |  | 
3 | C/C=C/C=C/C(=O)OC[C@H]1C2=C(C[C@H]3[C@H]4C5=C(C[C@@H](C(=O)N13)N4C)C(=O)C(C)=C(OC)C5=O)C(=O)C(C)=C(OC)C2=O | 5.61 | 5.60 | 5.49 | 5.46 | 5.41 | 5.69 | 5.61 | 5.67 | 5.46 |  | 
4 | COC1=C(C)C(=O)C2=C(C1=O)[C@@H]1[C@@H]3CC4=C(C(=O)C(OC)=C(C)C4=O)[C@H](COC(=O)c4cc(OC)c(OC)c(OC)c4)N3C(=O)[C@H](C2)N1C | 5.67 | 5.69 | 5.65 | 5.93 | 5.67 | 5.75 | 5.89 | 5.65 | 5.56 |  | 
5 | COC1=C(C)C(=O)C2=C(C1=O)[C@@H]1[C@@H]3CC4=C(C(=O)C(OC)=C(C)C4=O)[C@H](COC(=O)c4cc5ccccc5[nH]4)N3C(=O)[C@H](C2)N1C | 5.42 | 5.41 | 5.39 | 5.59 | 5.35 | 5.47 | 5.57 | 5.34 | 5.11 |  | 
6 | COC1=C(C)C(=O)C2=C(C1=O)[C@@H]1[C@@H]3CC4=C(C(=O)C(OC)=C(C)C4=O)[C@H](COC(=O)c4cccnc4)N3C(=O)[C@H](C2)N1C | 4.91 | 4.76 | 5.23 | 5.47 | 5.34 | 5.50 | 5.47 | 5.19 | 4.71 |  | 
7 | COC1=C(C)C(=O)C2=C(C1=O)[C@@H]1[C@@H]3CC4=C(C(=O)C(OC)=C(C)C4=O)[C@H](COC(=O)c4ccccc4)N3C(=O)[C@H](C2)N1C | 5.51 | 5.31 | 5.41 | 5.08 | 5.05 | 5.55 | 5.51 | 5.42 | 5.22 |  | 
8 | COC1=C(C)C(=O)C2=C(C1=O)[C@@H]1[C@@H]3CC4=C(C(=O)C(OC)=C(C)C4=O)[C@H](COC(=O)c4cccs4)N3C(=O)[C@H](C2)N1C | 5.84 | 5.73 | 6.15 | 6.28 | 5.78 | 7.70 | 6.33 | 5.80 | 5.83 |  | 
9 | COC1=C(C)C(=O)C2=C(C1=O)[C@@H]1[C@@H]3CC4=C(C(=O)C(OC)=C(C)C4=O)[C@H](COC(=O)c4cccc5ccccc45)N3C(=O)[C@H](C2)N1C | 4.82 | 4.85 | 4.90 | 4.76 | 4.86 | 5.27 | 5.12 | 4.96 | 4.55 |  | 
10 | COC1=C(C)C(=O)C2=C(C1=O)[C@@H]1[C@@H]3CC4=C(C(=O)C(OC)=C(C)C4=O)[C@H](COC(=O)/C=C/c4ccc(OC)cc4)N3C(=O)[C@H](C2)N1C | 5.38 | 5.43 | 5.08 | 5.42 | 5.51 | 5.43 | 5.55 | 5.14 | 5.05 |  | 
11 | COC1=C(C)C(=O)C2=C(C1=O)[C@@H]1[C@@H]3CC4=C(C(=O)C(OC)=C(C)C4=O)[C@H](COC(=O)/C=C/c4ccc(F)cc4)N3C(=O)[C@H](C2)N1C | 4.80 | 5.01 | 5.08 | 5.13 | 4.98 | 5.40 | 5.00 | 4.85 | 5.04 |  | 
12 | COC1=C(C)C(=O)C2=C(C1=O)[C@@H]1[C@@H]3CC4=C(C(=O)C(OC)=C(C)C4=O)[C@H](COC(=O)/C=C/c4ccccc4)N3C(=O)[C@H](C2)N1C | 5.30 | 5.45 | 5.30 | 5.48 | 5.11 | 5.53 | 5.36 | 5.64 | 5.30 |  | 
13 | COC1=C(C)C(=O)C2=C(C1=O)[C@@H]1[C@@H]3CC4=C(C(=O)C(OC)=C(C)C4=O)[C@H](COC(=O)/C=C/c4cccnc4)N3C(=O)[C@H](C2)N1C | 5.65 | 5.65 | 5.69 | 5.90 | 5.84 | 6.41 | 5.93 | 5.64 | 5.69 |  | 
14 | COC1=C(C)C(=O)C2=C(C1=O)[C@@H]1[C@@H]3CC4=C(C(=O)C(OC)=C(C)C4=O)[C@H](COC(=O)/C=C/c4ccc(OC)c(OC)c4OC)N3C(=O)[C@H](C2)N1C | 4.78 | 4.97 | 4.98 | 5.03 | 5.03 | 5.09 | 5.29 | 4.85 | 4.91 |  | 
15 | COC1=C(C)C(=O)C2=C(C1=O)[C@@H]1[C@@H]3CC4=C(C(=O)C(OC)=C(C)C4=O)[C@H](COC(=O)/C=C/c4cccc5ccccc45)N3C(=O)[C@H](C2)N1C | 5.04 | 5.40 | 5.30 | 4.93 | 5.10 | 5.06 | 5.13 | 5.01 | 5.03 |  | 
16 | C/C=C(/C)C(=O)OC[C@H]1C2=C(C[C@H]3[C@H]4C5=C(C[C@@H](C(=O)N13)N4C)C(=O)C(C)=C(OC)C5=O)C(=O)C(C)=C(OC)C2=O [(-)-RENIERAMYCIN G] | 5.38 | 5.42 | 5.30 | 5.47 | 5.47 | 5.48 | 5.54 | 5.04 | 5.06 | 0.5 µg/mL (≈ 0.886 µM) | 1 µg/mL (≈ 1.77 µM)
